Test results taken from patent publication US6699862B1, “Indolyl-2-phenyl bisamidines useful as antiproliferative agents” (Pfizer Inc., priority 1999, dated 2004).

Row | Structure (SMILES) | melting point
1 | COC(=O)C(CCCNC(=O)OCc1ccccc1)NC(=O)Cc1c(-c2ccc(C(=N)N)cc2)[nH]c2cc(C(=N)N)ccc12.Cl.Cl (centres unmarked) | 230 to 235 °C
2 | COC(=O)C(C)NCCc1c(-c2ccc(C(=N)N)cc2)[nH]c2cc(C(=N)N)ccc12.Cl.Cl (centres unmarked) | > 250 °C
3 | CCOC(=O)Cc1c(-c2ccc(C3=NCCN3)cc2)[nH]c2cc(C3=NCCN3)ccc12.Cl.Cl | > 300 °C
4 | Cl.Cl.O=CCc1c(-c2ccc(C3=NCCN3)cc2)[nH]c2cc(C3=NCCN3)ccc12 | > 300 °C
5 | Cl.Cl.N=C(N)c1ccc(-c2[nH]c3cc(C(=N)N)ccc3c2CCNCC(=O)O)cc1 | > 250 °C
6 | CCOC(=O)CNCCc1c(-c2ccc(C(=N)N)cc2)[nH]c2cc(C(=N)N)ccc12.Cl.Cl | > 250 °C
7 | Cl.Cl.N=C(N)c1ccc(-c2cc3ccc(C(=N)N)cc3[nH]2)c(OCC(O)CO)c1 (centres unmarked) | > 320 °C
8 | COC(=O)c1cccc(Cc2c(-c3ccc(C(=N)N)cc3)[nH]c3cc(C(=N)N)ccc23)c1.Cl.Cl | > 250 °C
9 | COC(=O)C(NCCc1c(-c2ccc(C(=N)N)cc2)[nH]c2cc(C(=N)N)ccc12)C(C)C.Cl.Cl (centres unmarked) | > 250 °C
10 | CCSCCOC(=O)Cc1c(-c2ccc(C(=N)N)cc2)[nH]c2cc(C(=N)N)ccc12.Cl.Cl | > 250 °C
11 | CCCCOC(=O)Cc1c(-c2ccc(C(=N)N)cc2)[nH]c2cc(C(=N)N)ccc12.Cl.Cl | > 270 °C
12 | Cl.Cl.N=C(N)c1ccc(-c2[nH]c3cc(C(=N)N)ccc3c2CC(=O)OCC2CCCCO2)cc1 (centres unmarked) | > 250 °C
13 | Cl.Cl.N=C(N)c1ccc(-c2[nH]c3cc(C(=N)N)ccc3c2CC(=O)OCCCCCO)cc1 | > 250 °C
14 | COC(=O)C=Cc1ccc(Cc2c(-c3ccc(C(=N)N)cc3)[nH]c3cc(C(=N)N)ccc23)cc1.Cl.Cl | > 250 °C
15 | Cl.Cl.N=C(N)c1ccc(-c2[nH]c3cc(C(=N)N)ccc3c2Cc2cccc(OCC(N)=O)c2)cc1 | > 250 °C
16 | CCCCS(=O)(=O)CCOC(=O)Cc1c(-c2ccc(C(=N)N)cc2)[nH]c2cc(C(=N)N)ccc12.Cl.Cl | > 250 °C
17 | COC(=O)C(CO)NCCc1c(-c2ccc(C(=N)N)cc2)[nH]c2cc(C(=N)N)ccc12.Cl.Cl (centres unmarked) | > 250 °C
18 | COC(=O)c1ccc(Cc2c(-c3ccc(C(=N)N)cc3)[nH]c3cc(C(=N)N)ccc23)cc1.Cl.Cl | > 250 °C
19 | Cl.Cl.N=C(N)c1ccc(-c2[nH]c3cc(C(=N)N)ccc3c2CC(O)CO)cc1 (centres unmarked) | > 250 °C
20 | COCCOCCOC(=O)Cc1c(-c2ccc(C(=N)N)cc2)[nH]c2cc(C(=N)N)ccc12.Cl.Cl | > 250 °C
21 | COC(=O)CNCCc1c(-c2ccc(C(=N)N)cc2)[nH]c2cc(C(=N)N)ccc12.Cl.Cl | > 250 °C
22 | CCOC(=O)CC(C)OC(=O)Cc1c(-c2ccc(C(=N)N)cc2)[nH]c2cc(C(=N)N)ccc12.Cl.Cl (centres unmarked) | > 250 °C
23 | CNC(=N)c1ccc(-c2cc3ccc(C(=N)NC)cc3[nH]2)cc1.Cl.Cl | 282 °C
24 | Cl.Cl.N=C(N)c1ccc(-c2[nH]c3cc(C(=N)N)ccc3c2NC(=O)CCC(=O)O)cc1 | > 250 °C
25 | Cl.Cl.O=C(O)Cc1c(-c2ccc(C3=NCCN3)cc2)[nH]c2cc(C3=NCCN3)ccc12 | > 300 °C

Row | Structure (SMILES) | melting point
26 | COc1cc(C(=N)N)ccc1-c1cc2ccc(C(=N)N)cc2[nH]1.Cl.Cl | > 250 °C
27 | COC(=O)Cc1c(-c2ccc(C(=N)N)cc2O)[nH]c2cc(C(=N)N)ccc12.Cl.Cl | > 250 °C
28 | C=CCOC(=O)Cc1c(-c2ccc(C(=N)N)cc2)[nH]c2cc(C(=N)N)ccc12.Cl.Cl | > 250 °C
29 | Cl.Cl.N=C(N)c1ccc(-c2[nH]c3cc(C(=N)N)ccc3c2CC(=O)OCC(O)CO)cc1 (centres unmarked) | > 250 °C
30 | Cl.Cl.N=C(N)c1ccc(-c2[nH]c3cc(C(=N)N)ccc3c2CC(=O)OCCc2cccs2)cc1 | > 250 °C
31 | Cl.Cl.N#CCCOC(=O)Cc1c(-c2ccc(C(=N)N)cc2)[nH]c2cc(C(=N)N)ccc12 | > 250 °C
32 | COCCOC(=O)Cc1c(-c2ccc(C(=N)N)cc2)[nH]c2cc(C(=N)N)ccc12.Cl.Cl | > 250 °C
33 | COC(=O)CC(NCCc1c(-c2ccc(C(=N)N)cc2)[nH]c2cc(C(=N)N)ccc12)C(=O)OC.Cl.Cl (centres unmarked) | > 250 °C
34 | Cl.Cl.N=C(N)c1ccc(-c2[nH]c3cc(C(=N)N)ccc3c2CC(=O)O)cc1 | > 250 °C
35 | COC(=O)C=CCc1c(-c2ccc(C(=N)N)cc2)[nH]c2cc(C(=N)N)ccc12.Cl.Cl | > 250 °C
36 | COC(=O)c1cc(Cl)ccc1Cc1c(-c2ccc(C(=N)N)cc2)[nH]c2cc(C(=N)N)ccc12.Cl.Cl | > 250 °C
37 | Cl.Cl.N=C(N)c1ccc(-c2cc3ccc(C(=N)N)cc3[nH]2)c(O)c1 | > 300 °C
38 | COC(=O)C(CCCCN)NC(=O)Cc1c(-c2ccc(C(=N)N)cc2)[nH]c2cc(C(=N)N)ccc12.Cl.Cl (centres unmarked) | > 260 °C
39 | COC(=O)C(CCCN)NC(=O)Cc1c(-c2ccc(C(=N)N)cc2)[nH]c2cc(C(=N)N)ccc12.Cl.Cl (centres unmarked) | > 250 °C
40 | COC(=O)C(Cc1ccccc1)NCCc1c(-c2ccc(C(=N)N)cc2)[nH]c2cc(C(=N)N)ccc12.Cl.Cl (centres unmarked) | > 250 °C
41 | Cl.Cl.N=C(N)c1ccc(-c2[nH]c3cc(C(=N)N)ccc3c2CC(=O)OCCOCCO)cc1 | > 250 °C
42 | Cl.Cl.N=C(N)c1ccc(-c2[nH]c3cc(C(=N)N)ccc3c2CC(=O)OCc2ccccc2)cc1 | > 250 °C
43 | Cl.Cl.N=C(N)c1ccc(-c2[nH]c3cc(C(=N)N)ccc3c2CC(=O)OCCOCc2ccccc2)cc1 | > 250 °C
44 | Cl.Cl.N=C(N)c1ccc(-c2[nH]c3cc(C(=N)N)ccc3c2CC(=O)OCCO)cc1 | > 250 °C
45 | CC(C(=O)O)c1c(-c2ccc(C(=N)N)cc2)[nH]c2cc(C(=N)N)ccc12.Cl.Cl (centres unmarked) | > 260 °C
46 | Cl.Cl.Fc1cc2cc(-c3ccc(C4=NCCN4)cc3)[nH]c2cc1C1=NCCN1 | > 250 °C
47 | CCCOC(=O)Cc1c(-c2ccc(C(=N)N)cc2)[nH]c2cc(C(=N)N)ccc12.Cl.Cl | > 270 °C
48 | COC(=O)CCNCCc1c(-c2ccc(C(=N)N)cc2)[nH]c2cc(C(=N)N)ccc12.Cl.Cl | > 250 °C
49 | Cl.Cl.N=C(N)c1ccc(-c2[nH]c3cc(C(=N)N)ccc3c2CC(=O)NCC(=O)NC(CCC(=O)OCc2ccccc2)C(=O)OCc2ccccc2)cc1 (centres unmarked) | 207 to 212 °C
50 | CC(C)OC(=O)C(C)Oc1cc(C(=N)N)ccc1-c1cc2ccc(C(=N)N)cc2[nH]1.Cl.Cl (centres unmarked) | 240 °C
